Test in all cases: RBC HotSpot Kinase Assay (33P-ATP filter-binding)
What all share (format): biochemical
Conditions in all cases: 10 μM ATP

One assay concerns the target FGFR1 (Homo sapiens (Human), UniProt P11362).
A further assay concerns the target FGFR3 (Homo sapiens (Human), UniProt P22607). As for the experimental part: (§1) Biochemical Assay. […] The reaction buffer was 20 mM HEPES (pH 7.5), 10 mM MgCl2, 1 mM EGTA, 0.02% Brij35, 0.02 mg/mL BSA, 0.1 mM Na3VO4, 2 mM DTT, 1% DMSO. The required cofactors are added individually to each kinase reaction. […] The substrate was Poly (Glu, Tyr) sodium salt and the concentration was 0.2 mg/mL (Sigma; cat. #P7244) where the Glu:Tyr (4:1) molecular weight was 5,000-20,000. […] Reactions were carried out at 10 μM ATP. The serial dilution was conducted by Integra Viaflo Assist in DMSO. The reaction procedure was conducted as follows: • 1) Prepare substrate in freshly prepared Reaction Buffer. • 2) MnCl2 (2 mM) was added as a co-factor listed as above. • 3) Deliver kinase into the substrate solution and gently mix. • 4) Deliver compounds in 100% DMSO into the kinase reaction mixture by Acoustic technology (Echo550; nanoliter range), incubate for 20 min at RT. • 5) Deliver 33P-ATP (specific activity 10 μCi/μL) into the reaction mixture to initiate the reaction. • 6) Incubate for 2 hours at RT. • 7) Detect radioactivity by the filter-binding method. • 8) Kinase activity data was expressed as the percent remaining kinase activity in the test sample compared to vehicle (DMSO) reactions.

The next assay has as its target FGFR2 (Homo sapiens (Human), UniProt P21802). As for the experimental part:
as §1

A further assay concerns the target FGFR4 (Homo sapiens (Human), UniProt P22455). As for the experimental part:
as §1

The structures appear in SMILES notation. pIC50: −log10 of the molar value.

A word on the pIC50: it is the negative decadic logarithm of the IC50, by convention in mol/L. The low end stands for a high IC50, the high end for a low IC50.

FGFR3, sequence (P22607 23-806): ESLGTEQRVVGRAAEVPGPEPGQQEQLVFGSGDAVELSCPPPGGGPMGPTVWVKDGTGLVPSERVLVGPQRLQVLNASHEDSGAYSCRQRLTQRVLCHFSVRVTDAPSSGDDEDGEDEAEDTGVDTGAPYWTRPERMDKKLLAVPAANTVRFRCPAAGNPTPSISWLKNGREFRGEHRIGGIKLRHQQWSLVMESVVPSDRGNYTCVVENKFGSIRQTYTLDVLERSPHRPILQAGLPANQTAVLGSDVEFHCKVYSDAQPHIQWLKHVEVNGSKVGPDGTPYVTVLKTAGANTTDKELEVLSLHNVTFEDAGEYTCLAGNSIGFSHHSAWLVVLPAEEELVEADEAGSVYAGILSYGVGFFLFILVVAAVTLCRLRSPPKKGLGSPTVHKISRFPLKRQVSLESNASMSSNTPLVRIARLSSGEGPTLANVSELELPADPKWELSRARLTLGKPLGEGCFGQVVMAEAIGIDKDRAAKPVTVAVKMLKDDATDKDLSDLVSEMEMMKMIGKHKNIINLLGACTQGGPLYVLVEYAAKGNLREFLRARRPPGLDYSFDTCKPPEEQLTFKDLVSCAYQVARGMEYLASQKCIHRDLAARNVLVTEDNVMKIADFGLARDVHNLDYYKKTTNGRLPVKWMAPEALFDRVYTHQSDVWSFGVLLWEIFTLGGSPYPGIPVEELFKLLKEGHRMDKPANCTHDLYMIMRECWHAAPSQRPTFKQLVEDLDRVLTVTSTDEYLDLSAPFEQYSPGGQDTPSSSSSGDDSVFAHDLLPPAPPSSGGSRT
FGFR1, sequence (P11362 22-822): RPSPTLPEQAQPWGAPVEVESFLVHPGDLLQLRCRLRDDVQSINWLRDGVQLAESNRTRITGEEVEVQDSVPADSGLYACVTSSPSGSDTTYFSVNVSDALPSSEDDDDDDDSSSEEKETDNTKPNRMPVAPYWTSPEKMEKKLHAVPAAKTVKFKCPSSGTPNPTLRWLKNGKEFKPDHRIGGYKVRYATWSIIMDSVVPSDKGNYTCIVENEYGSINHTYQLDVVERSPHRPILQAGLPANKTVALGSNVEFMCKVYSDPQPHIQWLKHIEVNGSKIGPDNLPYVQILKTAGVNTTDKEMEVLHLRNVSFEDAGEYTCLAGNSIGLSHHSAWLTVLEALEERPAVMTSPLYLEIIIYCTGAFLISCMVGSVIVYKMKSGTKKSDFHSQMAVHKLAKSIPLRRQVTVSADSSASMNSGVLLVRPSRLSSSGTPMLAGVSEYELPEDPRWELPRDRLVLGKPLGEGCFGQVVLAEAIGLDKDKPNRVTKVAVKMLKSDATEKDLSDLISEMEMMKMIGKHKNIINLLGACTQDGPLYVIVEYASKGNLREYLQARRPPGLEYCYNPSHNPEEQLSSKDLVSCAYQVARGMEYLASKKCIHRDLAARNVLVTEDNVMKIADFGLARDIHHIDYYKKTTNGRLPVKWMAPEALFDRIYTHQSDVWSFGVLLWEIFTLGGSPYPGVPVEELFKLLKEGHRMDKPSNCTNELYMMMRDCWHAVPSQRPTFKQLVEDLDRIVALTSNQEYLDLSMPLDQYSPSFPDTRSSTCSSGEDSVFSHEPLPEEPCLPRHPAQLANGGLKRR
FGFR4, sequence (P22455 22-802): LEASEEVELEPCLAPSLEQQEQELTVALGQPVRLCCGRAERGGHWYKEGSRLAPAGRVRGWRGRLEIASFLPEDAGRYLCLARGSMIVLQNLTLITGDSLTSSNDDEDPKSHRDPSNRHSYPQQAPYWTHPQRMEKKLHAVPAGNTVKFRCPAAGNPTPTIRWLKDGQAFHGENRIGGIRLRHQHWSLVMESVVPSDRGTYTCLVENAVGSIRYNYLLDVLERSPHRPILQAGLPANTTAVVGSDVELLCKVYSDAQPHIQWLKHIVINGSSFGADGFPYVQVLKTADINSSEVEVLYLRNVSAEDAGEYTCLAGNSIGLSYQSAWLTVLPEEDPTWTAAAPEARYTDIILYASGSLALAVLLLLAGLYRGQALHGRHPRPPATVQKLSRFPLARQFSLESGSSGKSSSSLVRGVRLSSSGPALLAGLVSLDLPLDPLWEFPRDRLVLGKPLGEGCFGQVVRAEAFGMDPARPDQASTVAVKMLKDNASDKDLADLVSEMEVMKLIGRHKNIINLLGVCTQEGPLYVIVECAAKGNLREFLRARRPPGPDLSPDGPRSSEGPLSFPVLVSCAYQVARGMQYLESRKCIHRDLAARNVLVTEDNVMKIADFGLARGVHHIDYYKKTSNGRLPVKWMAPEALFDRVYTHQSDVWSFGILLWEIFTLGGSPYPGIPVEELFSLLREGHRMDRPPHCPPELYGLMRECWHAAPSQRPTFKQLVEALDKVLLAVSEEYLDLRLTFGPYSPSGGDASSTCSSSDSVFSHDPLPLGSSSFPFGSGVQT
FGFR2, sequence (P21802 22-821): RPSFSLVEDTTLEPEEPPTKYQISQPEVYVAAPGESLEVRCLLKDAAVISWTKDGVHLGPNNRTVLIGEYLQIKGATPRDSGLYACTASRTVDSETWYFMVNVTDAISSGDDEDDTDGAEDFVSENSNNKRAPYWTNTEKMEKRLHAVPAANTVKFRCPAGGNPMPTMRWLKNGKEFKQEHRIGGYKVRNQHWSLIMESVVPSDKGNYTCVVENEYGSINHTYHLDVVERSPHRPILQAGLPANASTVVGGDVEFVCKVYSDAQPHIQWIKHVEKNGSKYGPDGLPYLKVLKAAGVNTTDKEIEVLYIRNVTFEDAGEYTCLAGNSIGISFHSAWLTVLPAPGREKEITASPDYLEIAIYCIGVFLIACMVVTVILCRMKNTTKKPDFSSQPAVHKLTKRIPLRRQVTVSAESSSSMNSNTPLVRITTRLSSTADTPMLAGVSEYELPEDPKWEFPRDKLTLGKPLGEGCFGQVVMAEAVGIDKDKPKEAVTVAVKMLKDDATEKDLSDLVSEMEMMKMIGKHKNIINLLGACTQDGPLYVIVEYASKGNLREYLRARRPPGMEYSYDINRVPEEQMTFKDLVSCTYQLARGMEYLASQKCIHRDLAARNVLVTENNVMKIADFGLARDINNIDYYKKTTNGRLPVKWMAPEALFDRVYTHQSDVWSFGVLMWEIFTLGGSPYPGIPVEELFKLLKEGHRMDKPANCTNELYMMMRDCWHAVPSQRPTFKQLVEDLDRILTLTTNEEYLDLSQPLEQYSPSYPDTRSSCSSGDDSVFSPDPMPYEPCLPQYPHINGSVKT

With `COc1cc(OC)cc(N(CCNC(C)C)c2ccc3nnc(-c4cnn(C)c4)cc3c2)c1` [Example 1, N^1-(3,5-Dimethoxyphenyl)-N^2-isopropyl-N^1-(3-(1-methyl-1H-pyrazol-4-yl)cinnolin-6-yl)ethane-1,2-diamine], the pIC50 on FGFR1 is 8.14; at FGFR3 it was 8.12; on FGFR2 it was 8.37; at FGFR4 it was 7.96.

These data come from patent US20240002365A1, “PYRIDAZINE AND 1,2,4-TRIAZINE DERIVATIVES AS FGFR KINASE INHIBITORS” (BETA PHARMA, INC., priority 2020, published 2024).
